Test results from ChEMBL document CHEMBL4382229, “Benzofuran derivatives and their anti-tubercular, anti-bacterial activities” (Eur J Med Chem, 2019).
Converted amounts (≈) assume the structure as drawn.

Experiments:
Type in all cases: functional
[1] = system: Staphylococcus aureus; experiment: Antibacterial activity against Staphylococcus aureus NCIM 2079 assessed as zone of inhibition at 1 ug/ml after 24 hrs by agar diffusion method; details: NCIM 2079, 24 h, read-out: IZ
[2] = system: Escherichia coli; experiment: Antibacterial activity against Escherichia coli NCIM 2064 assessed as zone of inhibition at 1 ug/ml after 24 hrs by agar diffusion method; details: NCIM 2064, 24 h, read-out: IZ
[3] = system: Bacillus subtilis; experiment: Antibacterial activity against Bacillus subtilis NCIM 2439 assessed as zone of inhibition at 1 ug/ml after 24 hrs by agar diffusion method; details: NCIM 2439, 24 h, read-out: IZ
[4] = system: Pseudomonas aeruginosa; experiment: Antibacterial activity against Pseudomonas aeruginosa NCIB 8650 assessed as zone of inhibition at 1 ug/ml after 24 hrs by agar diffusion method; details: NCIB 8650, 24 h, read-out: IZ
[5] = system: Escherichia coli; experiment: Antibacterial activity against Escherichia coli by broth dilution method
[6] = system: Pseudomonas aeruginosa; experiment: Antibacterial activity against Pseudomonas aeruginosa by broth dilution method
[7] = system: Streptococcus pyogenes; experiment: Antibacterial activity against Streptococcus pyogenes MTCC 442 assessed as zone of inhibition at 100 ug/ml by disc diffusion method; details: read-out: IZ
[8] = system: Escherichia coli; experiment: Antibacterial activity against Escherichia coli MTCC 443 assessed as zone of inhibition at 100 ug/ml by disc diffusion method; details: read-out: IZ
[9] = system: Pseudomonas aeruginosa; experiment: Antibacterial activity against Pseudomonas aeruginosa MTCC 424 assessed as zone of inhibition at 100 ug/ml by disc diffusion method; details: read-out: IZ
[10] = system: Staphylococcus aureus; experiment: Antibacterial activity against Staphylococcus aureus MTCC 96 assessed as zone of inhibition at 100 ug/ml by disc diffusion method; details: read-out: IZ
[11] = system: Pseudomonas aeruginosa; experiment: Antibacterial activity against Pseudomonas aeruginosa MTCC 1034 after 24 hrs by broth dilution method; details: MTCC 1034, 24 h
[12] = system: Escherichia coli; experiment: Antibacterial activity against Escherichia coli MTCC 1559 after 24 hrs by broth dilution method; details: MTCC 1559, 24 h
[13] = system: Bacillus subtilis; experiment: Antibacterial activity against Bacillus subtilis MTCC 1134 after 24 hrs by broth dilution method; details: MTCC 1134, 24 h
[14] = system: Klebsiella pneumoniae; experiment: Antibacterial activity against Klebsiella pneumoniae assessed as zone of inhibition at 1 mg/ml after 32 hrs by agar-well diffusion method; details: read-out: IZ
[15] = system: Staphylococcus aureus; experiment: Antibacterial activity against Staphylococcus aureus assessed as zone of inhibition at 1 mg/ml after 32 hrs by agar-well diffusion method; details: read-out: IZ
[16] = system: Escherichia coli; experiment: Antibacterial activity against Escherichia coli assessed as zone of inhibition at 1 mg/ml after 32 hrs by agar-well diffusion method; details: read-out: IZ
[17] = system: Pseudomonas aeruginosa; experiment: Antibacterial activity against Pseudomonas aeruginosa assessed as zone of inhibition at 1 mg/ml after 32 hrs by agar-well diffusion method; details: read-out: IZ

| Compound | zone of inhibition at 1 µg/mL [1] | zone of inhibition at 1 µg/mL [2] | zone of inhibition at 1 µg/mL [3] | zone of inhibition at 1 µg/mL [4] | also measured |
| --- | --- | --- | --- | --- | --- |
| COC(=O)c1cc(-c2cc3ccccc3o2)n(C(N)=O)n1 | 9 to 30 mm | 9 to 30 mm | 9 to 30 mm | 9 to 30 mm |  |
| O=c1oc2ccccc2cc1-c1coc2c1ccc1ccccc12 |  |  |  |  | MIC [5]: 6.25 to 100 mg/L (≈ 20 to 320 µM); MIC [6]: 6.25 to 100 mg/L (≈ 20 to 320 µM) |
| Cc1cc(NS(=O)(=O)c2ccc(Cl)cc2)c2oc(COC(=O)NCc3ccccc3)cc2c1 |  |  |  |  | zone of inhibition at 100 µg/mL [7]: 11 to 28 mm; zone of inhibition at 100 µg/mL [8]: 11 to 28 mm; zone of inhibition at 100 µg/mL [9]: 11 to 28 mm; zone of inhibition at 100 µg/mL [10]: 11 to 28 mm |
| COc1ccc2occ(-c3cc4ccccc4oc3=O)c2c1 |  |  |  |  | MIC [5]: 6.25 to 100 mg/L (≈ 21.4 to 342 µM); MIC [6]: 6.25 to 100 mg/L (≈ 21.4 to 342 µM) |
| Sc1nc(-c2cc3ccccc3o2)cc(-c2cccs2)n1 |  |  |  |  | MIC [11]: 4.32 to 18.4 mg/L (≈ 13.9 to 59.4 µM); MIC [12]: 4.32 to 18.4 mg/L (≈ 13.9 to 59.4 µM); MIC [13]: 4.32 to 18.4 mg/L (≈ 13.9 to 59.4 µM) |
| NNC(=O)c1cc(-c2cc3ccccc3o2)n(-c2ccccc2)n1 | 9 to 30 mm | 9 to 30 mm | 9 to 30 mm | 9 to 30 mm |  |
| Oc1nc(-c2cc3ccccc3o2)cc(-c2cccs2)n1 |  |  |  |  | MIC [11]: 4.32 to 18.4 mg/L (≈ 14.7 to 62.7 µM); MIC [12]: 4.32 to 18.4 mg/L (≈ 14.7 to 62.7 µM); MIC [13]: 4.32 to 18.4 mg/L (≈ 14.7 to 62.7 µM) |
| CCOC(=O)c1cc(-c2oc3ccc(Cl)cc3c2C)on1 | 9 to 30 mm | 9 to 30 mm | 9 to 30 mm | 9 to 30 mm |  |
| COc1ccc2occ(-c3cc4cc(Br)ccc4oc3=O)c2c1 |  |  |  |  | MIC [5]: 6.25 to 100 mg/L (≈ 16.8 to 269 µM); MIC [6]: 6.25 to 100 mg/L (≈ 16.8 to 269 µM) |
| COC(=O)c1cc(-c2oc3ccc(Cl)cc3c2C)[nH]n1 | 9 to 30 mm | 9 to 30 mm | 9 to 30 mm | 9 to 30 mm |  |
| NNC(=O)c1cc(-c2cc3cc(Br)ccc3o2)n(-c2ccccc2)n1 | 9 to 30 mm | 9 to 30 mm | 9 to 30 mm | 9 to 30 mm |  |
| COC(=O)c1cc(-c2cc3ccccc3o2)n(-c2ccccc2)n1 | 9 to 30 mm | 9 to 30 mm | 9 to 30 mm | 9 to 30 mm |  |
| COC(=O)c1cc(-c2oc3ccc(Cl)cc3c2C)n(-c2ccccc2)n1 | 9 to 30 mm | 9 to 30 mm | 9 to 30 mm | 9 to 30 mm |  |
| Fc1ccc(-c2csc3nc(-c4cc5cc(Br)ccc5o4)cn23)cc1 |  |  |  |  | zone of inhibition at 1000 µg/mL [14]: 6 to 23 mm; zone of inhibition at 1000 µg/mL [15]: 6 to 23 mm; zone of inhibition at 1000 µg/mL [16]: 6 to 23 mm; zone of inhibition at 1000 µg/mL [17]: 6 to 23 mm |
| Cc1ccc(-c2cc(-c3cc4cc(Br)ccc4o3)nc(N)n2)s1 |  |  |  |  | MIC [11]: 4.32 to 18.4 mg/L (≈ 11.2 to 47.8 µM); MIC [12]: 4.32 to 18.4 mg/L (≈ 11.2 to 47.8 µM); MIC [13]: 4.32 to 18.4 mg/L (≈ 11.2 to 47.8 µM) |
| COC(=O)c1cc(-c2oc3c(Cl)cc(Cl)cc3c2C)n(C(N)=O)n1 | 9 to 30 mm | 9 to 30 mm | 9 to 30 mm | 9 to 30 mm |  |
| Nc1nc(-c2cc3cc(Br)ccc3o2)cc(-c2cccs2)n1 |  |  |  |  | MIC [11]: 4.32 to 18.4 mg/L (≈ 11.6 to 49.6 µM); MIC [12]: 4.32 to 18.4 mg/L (≈ 11.6 to 49.6 µM); MIC [13]: 4.32 to 18.4 mg/L (≈ 11.6 to 49.6 µM) |
| Cc1c(-c2cc(C(=O)NN)nn2-c2ccccc2)oc2ccc(Cl)cc12 | 9 to 30 mm | 9 to 30 mm | 9 to 30 mm | 9 to 30 mm |  |
| Cc1ccc2c(-c3cc4cc(Br)ccc4oc3=O)coc2c1 |  |  |  |  | MIC [5]: 6.25 to 100 mg/L (≈ 17.6 to 282 µM); MIC [6]: 6.25 to 100 mg/L (≈ 17.6 to 282 µM) |
| COC(=O)c1cc(-c2oc3c(Cl)cc(Cl)cc3c2C)n(-c2ccccc2)n1 | 9 to 30 mm | 9 to 30 mm | 9 to 30 mm | 9 to 30 mm |  |
| Brc1ccc2oc(-c3cn4c(-c5ccccc5)csc4n3)cc2c1 |  |  |  |  | zone of inhibition at 1000 µg/mL [14]: 15 to 20 mm; zone of inhibition at 1000 µg/mL [15]: 15 to 20 mm; zone of inhibition at 1000 µg/mL [16]: 15 to 20 mm; zone of inhibition at 1000 µg/mL [17]: 15 to 20 mm |
| COC(=O)c1cc(-c2cc3cc(Br)ccc3o2)[nH]n1 | 9 to 30 mm | 9 to 30 mm | 9 to 30 mm | 9 to 30 mm |  |
| Brc1ccc2oc(-c3csc4nc(-c5cc6ccccc6o5)cn34)cc2c1 |  |  |  |  | zone of inhibition at 1000 µg/mL [14]: 6 to 23 mm; zone of inhibition at 1000 µg/mL [15]: 6 to 23 mm; zone of inhibition at 1000 µg/mL [16]: 6 to 23 mm; zone of inhibition at 1000 µg/mL [17]: 6 to 23 mm |
| Sc1nc(-c2cc3cc(Br)ccc3o2)cc(-c2cccs2)n1 |  |  |  |  | MIC [11]: 4.32 to 18.4 mg/L (≈ 11.1 to 47.4 µM); MIC [12]: 4.32 to 18.4 mg/L (≈ 11.1 to 47.4 µM); MIC [13]: 4.32 to 18.4 mg/L (≈ 11.1 to 47.4 µM) |
| Cc1ccc(-c2cc(-c3cc4cc(Br)ccc4o3)nc(O)n2)s1 |  |  |  |  | MIC [11]: 4.32 to 18.4 mg/L (≈ 11.2 to 47.6 µM); MIC [12]: 4.32 to 18.4 mg/L (≈ 11.2 to 47.6 µM); MIC [13]: 4.32 to 18.4 mg/L (≈ 11.2 to 47.6 µM) |
